Data published in patent US20260176265A1 (Cancer Research Technology Limited, priority 2022, published 2026).

Legend:
[1] = target: CtermHisTag-mEGFR Triple Mutant - C797S, L858R, T790M (Homo sapiens, UniProt P00533, C797S/L858R/T790M); test: TR-FRET probe displacement assay, EGFR triple mutant; format: binding; conditions: T790M 1.25 nM, probe 100 nM, 30 mins room temperature
Method in brief: (§1)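 Ten-point compound series, 100000 to 3 nM final, tested against His-tagged EGFR (wild type or C797S/L858R/T790M) for probe displacement. TR-FRET read at Ex337 nm, Em490/520 nm; run in technical replicate, biological duplicate.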

[2] = target: CtermHisTag-mEGFR Wild type (Homo sapiens, UniProt P00533); test: TR-FRET probe displacement assay, EGFR wild type; format: binding; conditions: EGFR wild type 1.25 nM, probe 100 nM, 30 mins room temperature
Chain of CtermHisTag-mEGFR Wild type (P00533 25-1210): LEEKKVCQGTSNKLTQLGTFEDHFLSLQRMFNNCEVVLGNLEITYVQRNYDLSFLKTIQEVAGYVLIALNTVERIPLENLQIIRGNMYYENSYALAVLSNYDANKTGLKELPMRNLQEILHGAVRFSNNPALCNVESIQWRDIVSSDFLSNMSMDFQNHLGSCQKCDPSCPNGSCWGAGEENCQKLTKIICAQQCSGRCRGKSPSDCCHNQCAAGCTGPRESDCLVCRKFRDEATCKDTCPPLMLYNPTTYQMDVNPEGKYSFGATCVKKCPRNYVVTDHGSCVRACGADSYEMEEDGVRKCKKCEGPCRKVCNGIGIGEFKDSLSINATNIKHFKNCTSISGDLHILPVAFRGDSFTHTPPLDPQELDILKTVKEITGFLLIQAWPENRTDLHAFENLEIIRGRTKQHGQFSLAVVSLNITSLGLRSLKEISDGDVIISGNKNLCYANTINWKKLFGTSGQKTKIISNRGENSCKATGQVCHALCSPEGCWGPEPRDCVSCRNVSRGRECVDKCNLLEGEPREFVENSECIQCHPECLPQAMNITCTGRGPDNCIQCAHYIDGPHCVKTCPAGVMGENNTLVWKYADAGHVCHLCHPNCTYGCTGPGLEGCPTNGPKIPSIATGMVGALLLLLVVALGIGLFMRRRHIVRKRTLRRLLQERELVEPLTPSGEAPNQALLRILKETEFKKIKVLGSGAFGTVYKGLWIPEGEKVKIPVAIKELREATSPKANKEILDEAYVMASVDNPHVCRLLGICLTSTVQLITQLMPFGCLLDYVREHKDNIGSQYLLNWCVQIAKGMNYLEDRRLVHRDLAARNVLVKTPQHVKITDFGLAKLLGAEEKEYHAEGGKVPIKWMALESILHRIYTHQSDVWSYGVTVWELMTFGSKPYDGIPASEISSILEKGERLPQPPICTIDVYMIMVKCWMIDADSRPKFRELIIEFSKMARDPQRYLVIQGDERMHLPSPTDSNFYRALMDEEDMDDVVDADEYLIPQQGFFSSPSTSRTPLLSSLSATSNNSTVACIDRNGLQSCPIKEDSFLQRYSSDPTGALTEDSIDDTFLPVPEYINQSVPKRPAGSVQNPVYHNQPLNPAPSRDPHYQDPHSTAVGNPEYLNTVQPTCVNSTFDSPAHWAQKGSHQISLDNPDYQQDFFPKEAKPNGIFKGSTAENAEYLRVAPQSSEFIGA
Method in brief: as §1

[3] = target: T1, Phospho-EGFR (Tyr1068) in H1975 cells (Homo sapiens, UniProt P00533, L858R/T790M); test: HTRF pEGFR/total EGFR assay in H1975 cells; format: cell-based; conditions: compound 3 hours, ratio pEGFR/total EGFR
T1 construct: host or cells: H1975
Method in brief: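 H1975 cells (EGFR L858R/T790M) adhered 24 h, then compound-treated for 3 h in duplicate, 0.1% DMSO final. Lysates read by HTRF at 665/620 nm for phospho-Tyr1068 and total EGFR. Value is pEGFR/total EGFR ratio as % of 0 uM control.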

[4] = target: T2, Phospho-EGFR (Tyr1068) in H1975 C797S cells (Homo sapiens, UniProt P00533, C797S/L858R/T790M); test: HTRF pEGFR/total EGFR assay in H1975 C797S cells; format: cell-based; conditions: H1975 C797S cells (CRISPR), compound 3 hours, ratio pEGFR/total EGFR
T2 construct: endogenous in cells; host or cells: H1975 C797S (CRISPR-edited in house from ATCC CRL-5908)
T2 sequence (P00533 25-1210 T790M/C797S/L858R): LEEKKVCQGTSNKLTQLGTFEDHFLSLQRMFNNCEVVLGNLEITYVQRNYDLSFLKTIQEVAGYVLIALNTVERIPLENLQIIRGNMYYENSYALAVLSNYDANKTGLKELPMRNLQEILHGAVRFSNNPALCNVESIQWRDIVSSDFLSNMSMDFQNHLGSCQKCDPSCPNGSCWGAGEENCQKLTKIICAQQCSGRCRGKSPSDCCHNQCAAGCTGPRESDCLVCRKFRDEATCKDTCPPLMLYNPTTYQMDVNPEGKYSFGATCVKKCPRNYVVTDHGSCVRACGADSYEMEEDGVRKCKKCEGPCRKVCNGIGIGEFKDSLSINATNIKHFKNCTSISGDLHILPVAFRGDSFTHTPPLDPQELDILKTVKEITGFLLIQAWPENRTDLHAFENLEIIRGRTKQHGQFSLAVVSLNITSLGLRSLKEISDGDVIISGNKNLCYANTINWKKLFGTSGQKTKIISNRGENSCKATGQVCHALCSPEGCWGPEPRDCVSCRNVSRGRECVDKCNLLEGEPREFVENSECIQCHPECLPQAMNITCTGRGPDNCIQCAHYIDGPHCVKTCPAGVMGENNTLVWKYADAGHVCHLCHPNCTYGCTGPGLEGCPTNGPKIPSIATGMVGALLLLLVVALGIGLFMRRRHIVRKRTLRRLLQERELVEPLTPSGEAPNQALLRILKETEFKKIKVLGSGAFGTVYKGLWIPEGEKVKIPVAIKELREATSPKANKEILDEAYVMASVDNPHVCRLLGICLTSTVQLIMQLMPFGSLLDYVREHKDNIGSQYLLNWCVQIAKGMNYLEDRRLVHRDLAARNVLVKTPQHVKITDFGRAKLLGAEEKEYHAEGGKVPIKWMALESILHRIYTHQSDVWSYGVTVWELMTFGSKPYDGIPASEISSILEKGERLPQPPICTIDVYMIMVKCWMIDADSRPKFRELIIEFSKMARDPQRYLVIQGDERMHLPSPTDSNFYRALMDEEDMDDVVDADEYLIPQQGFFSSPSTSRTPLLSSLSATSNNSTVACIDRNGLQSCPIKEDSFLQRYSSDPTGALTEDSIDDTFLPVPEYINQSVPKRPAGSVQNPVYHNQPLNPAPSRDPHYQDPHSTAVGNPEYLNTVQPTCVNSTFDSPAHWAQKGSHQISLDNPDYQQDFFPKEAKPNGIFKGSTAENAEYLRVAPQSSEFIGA
Method in brief: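 H1975 cells carrying CRISPR-engineered EGFR C797S (with L858R/T790M) were exposed to compounds for 3 h at 0.1% DMSO, in duplicate. Lysates were read with HTRF kits for pEGFR Tyr1068 and total EGFR at 665/620 nm. Values are the pEGFR/total EGFR ratio as percent of the 0 uM control.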

[5] = target: T3, Phospho-EGFR (Tyr1068) in A431 cells (Homo sapiens, UniProt P00533); test: HTRF pEGFR/total EGFR assay in A431 cells (EGF stimulated); format: cell-based; conditions: compound 2.5 hours then 100 ng/ml EGF 30 mins, ratio pEGFR/total EGFR
T3 construct: endogenous in cells; host or cells: A431
T3 sequence (P00533 25-1210): as the sequence (P00533 25-1210) above
Method in brief: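 A431 cells pretreated with compounds 2.5 h (0.1% DMSO), then stimulated with 100 ng/ml EGF for 30 min. Lysates assayed by HTRF for phospho-EGFR (Tyr1068) and total EGFR, read at 665/620 nm. Values are pEGFR/total EGFR ratio as percentage of 0uM control.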

Chain of CtermHisTag-mEGFR Triple Mutant - C797S, L858R, T790M (P00533 25-1210 T790M/C797S/L858R): as the sequence (P00533 25-1210 T790M/C797S/L858R) above

| SMILES | IC50 [1] | IC50 [2] | IC50 [3] | IC50 [4] | IC50 [5] |
| --- | --- | --- | --- | --- | --- |
| C#Cc1cc(NC(=O)NC2CCCC2)nc2nc(Nc3ccccc3N3CCCC(CS(C)(=O)=O)C3)ncc12 (stereo not shown) [Example 118, 3-Cyclopentyl-1-[5-ethynyl-2-({2-[3-(methanesulfonylmethyl)piperidin-1-yl]phenyl}amino)pyrido[2,3-d]pyrimidin-7-yl]urea] | 1000 to 50000 nM | > 10000 nM | > 3000 nM | > 3000 nM | > 3000 nM |
| C#Cc1cc(OC2CCC2)nc2nc(Nc3ccc(N4CCN(C)CC4)cc3)ncc12 [Example 18, 7-cyclobutoxy-5-ethynyl-N-[4-(4-methylpiperazin-1-yl)phenyl]pyrido[2,3-d]pyrimidin-2-amine] | 20 to 100 nM | > 10000 nM | > 3000 nM | > 3000 nM | > 3000 nM |
| C#Cc1cc(NC(=O)NC2CCCC2)nc2nc(Nc3cccc(N(C)[C@H]4C[C@H](CS(C)(=O)=O)C4)c3)ncc12 [Example 122] | < 20 nM | < 1000 nM | < 500 nM | < 500 nM | 1000 to 3000 nM |
| C#Cc1cc(N(C)C(=O)NC2CCCC2)nc2nc(Nc3ccc(N4CCN(C)CC4)cc3)ncc12 [Example 73, 3-Cyclopentyl-1-(5-ethynyl-2-{[4-(4-methylpiperazin-1-yl)phenyl]amino}pyrido[2,3-d]pyrimidin-7-yl)-1-methylurea] | < 20 nM | < 1000 nM | < 500 nM | < 500 nM | > 3000 nM |
| C#Cc1cc(NC(=O)NC2CCCC2)nc2nc(Nc3ccc(N(C)C(C)=O)cc3)ncc12 [Example 77, N-[4-((7-[(Cyclopentylcarbamoyl)amino]-5-ethynyl)pyrido[2,3-d]pyrimidin-2-ylamino)phenyl]-N-methylacetamide] | < 20 nM | < 1000 nM | 500 to 1000 nM | > 3000 nM | > 3000 nM |
